± gives the standard deviation of the averaged measurements.
Tests used:
Test in all cases: apoptotic fraction of cells (caspase-3 NucView488 positive); higher = more apoptosis
C32 = tested on: C32
Description: (§1)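 BRAF V600E/D melanoma cell lines were seeded in 96-well plates, treated in 4 replicates with seven doses (3.16 nM to 3.16 uM) of RAF/MEK inhibitors for 24, 48 or 72 h, and stained with Hoechst 33342 (nuclei) and DEVD-NucView488 caspase-3 substrate. Plates were imaged on an Operetta. Relative viability is the cell count normalised to a DMSO-treated control; apoptosis fraction is the fraction of NucView488-positive nuclei.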

COLO858 = tested on: COLO858
Description: as §1

K2 = tested on: K2
Description: as §1

LOXIMVI = tested on: LOXIMVI
Description: as §1

RVH421 = tested on: RVH421
Description: as §1

## Cn1cnc2c(F)c(Nc3ccc(Br)cc3Cl)c(C(=O)NOCCO)cc21 [Selumetinib]
C32; 24 h, 0.00316 µM
  apoptotic fraction of cells: 0.0878 ± 0.021
C32; 24 h, 0.01 µM
  apoptotic fraction of cells: 0.113 ± 0.0042
C32; 24 h, 0.0316 µM
  apoptotic fraction of cells: 0.144 ± 0.015
C32; 24 h, 0.1 µM
  apoptotic fraction of cells: 0.213 ± 0.02
C32; 24 h, 0.316 µM
  apoptotic fraction of cells: 0.215 ± 0.029
C32; 24 h, 1 µM
  apoptotic fraction of cells: 0.236 ± 0.0091
C32; 24 h, 3.16 µM
  apoptotic fraction of cells: 0.272 ± 0.052
C32; 48 h, 0.00316 µM
  apoptotic fraction of cells: 0.0773 ± 0.01
C32; 48 h, 0.01 µM
  apoptotic fraction of cells: 0.0963 ± 0.028
C32; 48 h, 0.0316 µM
  apoptotic fraction of cells: 0.0636 ± 0.012
C32; 48 h, 0.1 µM
  apoptotic fraction of cells: 0.107 ± 0.0058
C32; 48 h, 0.316 µM
  apoptotic fraction of cells: 0.262 ± 0.033
C32; 48 h, 1 µM
  apoptotic fraction of cells: 0.598 ± 0.026
C32; 48 h, 3.16 µM
  apoptotic fraction of cells: 0.83 ± 0.014
C32; 72 h, 0.00316 µM
  apoptotic fraction of cells: 0.103 ± 0.028
C32; 72 h, 0.01 µM
  apoptotic fraction of cells: 0.0822 ± 0.016
C32; 72 h, 0.0316 µM
  apoptotic fraction of cells: 0.0406 ± 0.00086
C32; 72 h, 0.1 µM
  apoptotic fraction of cells: 0.108 ± 0.018
C32; 72 h, 0.316 µM
  apoptotic fraction of cells: 0.403 ± 0.046
C32; 72 h, 1 µM
  apoptotic fraction of cells: 0.759 ± 0.05
C32; 72 h, 3.16 µM
  apoptotic fraction of cells: 0.862 ± 0.035
COLO858; 24 h, 0.00316 µM
  apoptotic fraction of cells: 0.0501 ± 0.004
COLO858; 24 h, 0.01 µM
  apoptotic fraction of cells: 0.0441 ± 0.0024
COLO858; 24 h, 0.0316 µM
  apoptotic fraction of cells: 0.0433 ± 0.0027
COLO858; 24 h, 0.1 µM
  apoptotic fraction of cells: 0.0474 ± 0.0037
COLO858; 24 h, 0.316 µM
  apoptotic fraction of cells: 0.083 ± 0.0066
COLO858; 24 h, 1 µM
  apoptotic fraction of cells: 0.137 ± 0.011
COLO858; 24 h, 3.16 µM
  apoptotic fraction of cells: 0.149 ± 0.012
COLO858; 48 h, 0.00316 µM
  apoptotic fraction of cells: 0.0496 ± 0.0044
COLO858; 48 h, 0.01 µM
  apoptotic fraction of cells: 0.049 ± 0.0057
COLO858; 48 h, 0.0316 µM
  apoptotic fraction of cells: 0.0473 ± 0.0057
COLO858; 48 h, 0.1 µM
  apoptotic fraction of cells: 0.0649 ± 0.01
COLO858; 48 h, 0.316 µM
  apoptotic fraction of cells: 0.155 ± 0.0036
COLO858; 48 h, 1 µM
  apoptotic fraction of cells: 0.232 ± 0.045
COLO858; 48 h, 3.16 µM
  apoptotic fraction of cells: 0.313 ± 0.053
COLO858; 72 h, 0.00316 µM
  apoptotic fraction of cells: 0.0958 ± 0.01
COLO858; 72 h, 0.01 µM
  apoptotic fraction of cells: 0.0753 ± 0.0071
COLO858; 72 h, 0.0316 µM
  apoptotic fraction of cells: 0.0678 ± 0.0046
COLO858; 72 h, 0.1 µM
  apoptotic fraction of cells: 0.0769 ± 0.011
COLO858; 72 h, 0.316 µM
  apoptotic fraction of cells: 0.134 ± 0.025
COLO858; 72 h, 1 µM
  apoptotic fraction of cells: 0.259 ± 0.038
COLO858; 72 h, 3.16 µM
  apoptotic fraction of cells: 0.383 ± 0.037
K2; 24 h, 0.00316 µM
  apoptotic fraction of cells: 0.00506 ± 0.0011
K2; 24 h, 0.01 µM
  apoptotic fraction of cells: 0.00321 ± 0.002
K2; 24 h, 0.0316 µM
  apoptotic fraction of cells: 0.00454 ± 0.0034
K2; 24 h, 0.1 µM
  apoptotic fraction of cells: 0.0128 ± 0.0044
K2; 24 h, 0.316 µM
  apoptotic fraction of cells: 0.0266 ± 0.012
K2; 24 h, 1 µM
  apoptotic fraction of cells: 0.123 ± 0.04
K2; 24 h, 3.16 µM
  apoptotic fraction of cells: 0.142 ± 0.031
K2; 48 h, 0.00316 µM
  apoptotic fraction of cells: 0.0027 ± 0.0014
K2; 48 h, 0.01 µM
  apoptotic fraction of cells: 0.00331 ± 0.0011
K2; 48 h, 0.0316 µM
  apoptotic fraction of cells: 0.0058 ± 0.0011
K2; 48 h, 0.1 µM
  apoptotic fraction of cells: 0.0372 ± 0.0084
K2; 48 h, 0.316 µM
  apoptotic fraction of cells: 0.0691 ± 0.013
K2; 48 h, 1 µM
  apoptotic fraction of cells: 0.199 ± 0.022
K2; 48 h, 3.16 µM
  apoptotic fraction of cells: 0.332 ± 0.019
LOXIMVI; 24 h, 0.00316 µM
  apoptotic fraction of cells: 0.0508 ± 0.0089
LOXIMVI; 24 h, 0.01 µM
  apoptotic fraction of cells: 0.0393 ± 0.011
LOXIMVI; 24 h, 0.0316 µM
  apoptotic fraction of cells: 0.0293 ± 0.0065
LOXIMVI; 24 h, 0.1 µM
  apoptotic fraction of cells: 0.0452 ± 0.012
LOXIMVI; 24 h, 0.316 µM
  apoptotic fraction of cells: 0.0393 ± 0.0018
LOXIMVI; 24 h, 1 µM
  apoptotic fraction of cells: 0.0476 ± 0.013
LOXIMVI; 24 h, 3.16 µM
  apoptotic fraction of cells: 0.0428 ± 0.013
LOXIMVI; 48 h, 0.00316 µM
  apoptotic fraction of cells: 0.111 ± 0.019
LOXIMVI; 48 h, 0.01 µM
  apoptotic fraction of cells: 0.0778 ± 0.014
LOXIMVI; 48 h, 0.0316 µM
  apoptotic fraction of cells: 0.0621 ± 0.011
LOXIMVI; 48 h, 0.1 µM
  apoptotic fraction of cells: 0.0589 ± 0.025
LOXIMVI; 48 h, 0.316 µM
  apoptotic fraction of cells: 0.0582 ± 0.01
LOXIMVI; 48 h, 1 µM
  apoptotic fraction of cells: 0.0523 ± 0.0092
LOXIMVI; 48 h, 3.16 µM
  apoptotic fraction of cells: 0.0597 ± 0.0034
LOXIMVI; 72 h, 0.00316 µM
  apoptotic fraction of cells: 0.161 ± 0.04
LOXIMVI; 72 h, 0.01 µM
  apoptotic fraction of cells: 0.0676 ± 0.015
LOXIMVI; 72 h, 0.0316 µM
  apoptotic fraction of cells: 0.0426 ± 0.0086
LOXIMVI; 72 h, 0.1 µM
  apoptotic fraction of cells: 0.0445 ± 0.008
LOXIMVI; 72 h, 0.316 µM
  apoptotic fraction of cells: 0.0604 ± 0.0097
LOXIMVI; 72 h, 1 µM
  apoptotic fraction of cells: 0.0759 ± 0.0072
LOXIMVI; 72 h, 3.16 µM
  apoptotic fraction of cells: 0.105 ± 0.02
RVH421; 24 h, 0.00316 µM
  apoptotic fraction of cells: 0.0531 ± 0.0079
RVH421; 24 h, 0.01 µM
  apoptotic fraction of cells: 0.0501 ± 0.0051
RVH421; 24 h, 0.0316 µM
  apoptotic fraction of cells: 0.0442 ± 0.004
RVH421; 24 h, 0.1 µM
  apoptotic fraction of cells: 0.0496 ± 0.0021
RVH421; 24 h, 0.316 µM
  apoptotic fraction of cells: 0.0515 ± 0.00052
RVH421; 24 h, 1 µM
  apoptotic fraction of cells: 0.0523 ± 0.0068
RVH421; 24 h, 3.16 µM
  apoptotic fraction of cells: 0.0612 ± 0.001
RVH421; 48 h, 0.00316 µM
  apoptotic fraction of cells: 0.0489 ± 0.0032
RVH421; 48 h, 0.01 µM
  apoptotic fraction of cells: 0.0601 ± 0.016
RVH421; 48 h, 0.0316 µM
  apoptotic fraction of cells: 0.0622 ± 0.013
RVH421; 48 h, 0.1 µM
  apoptotic fraction of cells: 0.0642 ± 0.013
RVH421; 48 h, 0.316 µM
  apoptotic fraction of cells: 0.0635 ± 0.0081
RVH421; 48 h, 1 µM
  apoptotic fraction of cells: 0.0671 ± 0.013
RVH421; 48 h, 3.16 µM
  apoptotic fraction of cells: 0.0755 ± 0.015
RVH421; 72 h, 0.00316 µM
  apoptotic fraction of cells: 0.0328 ± 0.0031
RVH421; 72 h, 0.01 µM
  apoptotic fraction of cells: 0.0321 ± 0.0041
RVH421; 72 h, 0.0316 µM
  apoptotic fraction of cells: 0.0318 ± 0.0031
RVH421; 72 h, 0.1 µM
  apoptotic fraction of cells: 0.0418 ± 0.0081
RVH421; 72 h, 0.316 µM
  apoptotic fraction of cells: 0.0438 ± 0.0051
RVH421; 72 h, 1 µM
  apoptotic fraction of cells: 0.0599 ± 0.0044
RVH421; 72 h, 3.16 µM
  apoptotic fraction of cells: 0.0977 ± 0.015

Reference: the supplement of paper PMC4380931
